Experimental data taken from patent US20230210857A1, “RESPIRATORY STIMULANT PARENTERAL FORMULATIONS” (Enalare Therapeutics Inc., priority 2021, published 2023).

Legend:
Format in all cases: physicochemical
[1] = pKa and theoretical free base solubility
[2] = Stability as a function of pH 2-6 (1 mg/mL, 0.25 mg/mL at pH 6, in ~10 mM citric acid/glycine buffers)
Description: Thus, the inventors believe that the solubility of the drug becomes inadequate for the intended product concentration above about pH 3.6. However, the drug product will be diluted prior to infusion and then intravenously infused slowly, and such a low pH is unlikely to present a safety or patient comfort issue, but stability of the drug in solution could be an issue at such a low pH. The purpose of this experiment was to assess the stability of the drug as a function of pH.
A key consideration in such an experiment is the concentration of drug and buffer used. Use of a buffer is essential since the data is meaningless if the pH shifts dramatically during the experiment. However, it is desirable to keep the buffer at minimal strength to minimize the impact of buffer catalysis. Buffer strength can be minimized by keeping the drug concentration low. Keeping the drug concentration low also minimizes confounding the data with solubility limits (i.e. the drug precipitating out of solution).
Methodology: Buffer solutions containing ˜10 mM each of citric acid and glycine in the pH range 2-6 were prepared by titrating 250 mL of a single stock containing both buffer agents with 1N NaOH/1N HCl and removing 50 mL aliquots at predetermined pH values. Solutions at 1 mg/mL were prepared in buffers of pH 2-5 by dissolving ˜25 mg of Compounds having the active agent (N-(4,6-Bis-n-propylamino-[1,3,5]triazin-2-yl)-O,N-dimethyl-hydroxylamine) H2SO4 in ˜23 mL of a given buffer, adjusting the pH to the target and making up the volume to 25.0 mL in a volumetric flask. The solution at pH 6 was prepared similarly but at a lower drug concentration of 0.25 mg/mL using 6.68 mg of Compounds having the active agent (N-(4,6-Bis-n-propylamino-[1,3,5]triazin-2-yl)-O,N-dimethyl-hydroxylamine) H2SO4.
Each of the buffered solutions were filtered through a 0.2 μm polyether sulfone syringe filter into a volumetric flask, which had been previously rinsed with 70% ethanol and dried in a laminar flow hood. Following filtration, each buffered solution was split into 10 aliquots (9 aliquots of 2.5 mL each and 1 aliquot of 2 mL) in 5 mL serum vials previously rinsed with 70% ethanol and dried in a laminar flow hood. Filtration and preparation of aliquots were performed in a laminar flow hood. The 2 mL aliquot of each buffered solution was submitted for T0 analysis (HPLC assay and related substances). Of the nine 2.5 mL aliquots, three aliquots were stored at each 40° C. and 60° C., two aliquots were stored at 25° C. and one aliquot was stored at −70° C. Samples stored at 40° C. and at 60° C. were evaluated for physical appearance, pH, assay and related substances after 1 week, 2 weeks and 4 weeks of storage. Samples at 25° C. and −70° C. served as controls to be analyzed if necessary.
The pH values for all the samples remained relatively constant for up to 4 weeks at both storage temperatures.

[3] = Stability as a function of pH, narrow range pH 2-3.6 (1 mg/mL in ~10 mM citric acid/glycine buffers)
Procedure: Accordingly, the stability of the compound was evaluated in the pH range 2-3.6.
Methodology: Buffer solutions containing ˜10 mM each of citric acid and glycine in the pH range 2-3.6 were prepared by titrating 250 mL of a single stock containing both buffer agents with 1N NaOH/1N HCl and removing 50 mL aliquots at predetermined pH values. Solutions at 1 mg/mL were prepared in the buffers by dissolving ˜25 mg of compound in ˜23 mL of a given buffer, adjusting the pH to the target and making up the volume to 25.0 mL in a volumetric flask.
Each of the buffered solutions was filtered through a 0.2 μm polyether sulfone syringe filter into a volumetric flask previously rinsed with 70% ethanol and dried in a laminar flow hood. Following filtration, each buffered solution was split into 9 aliquots in 5 mL serum vials previously rinsed with 70% ethanol and dried in a laminar flow hood. Filtration and preparation of aliquots were performed in a laminar flow hood. Of the nine aliquots, three aliquots were stored at each 40° C. and 60° C., two aliquots were stored at 25° C. and one aliquot was submitted for T0 testing. Samples were evaluated for pH, assay and related substances at T0 and, following 1 week, 2 weeks and 4 weeks of storage at 40° C. and 60° C. Samples stored at 25° C. served as controls to be analyzed if necessary.
This means that any increase in the pH of the formulation leads to an improvement in stability within the pH range in which an aqueous formulation is feasible.

[4] = Drug substance stability (API in closed Type I glass vials)
Procedure: Methodology: Approximately 100 mg of the API (Lot 009MSB058) were stored at each of 40° C. and 60° C. in closed Type I glass vials. Samples were analyzed for appearance and percent purity at T0 and after 1 week, 2 weeks and 4 weeks of storage.
Visually, there were no signs of degradation (i.e. discoloration etc.).

CCCNc1nc(NCCC)nc(N(C)OC)n1 [active agent, N-(4,6-Bis-n-propylamino-[1,3,5]triazin-2-yl)-O,N-dimethyl-hydroxylamine]
pKa [1]: 5.6 | theoretical free base solubility [1]: about 0.18 mg/mL | solution stability versus pH (in words) ([2]; assay and impurities data, pH 2 compared to pH 3-6): significantly less stable at pH 2 | Impurities ([2]; target pH 2, 40° C. 2 wk): 1.48% | Impurities ([2]; target pH 2, 40° C. 4 wk): 2.49% | Impurities ([2]; target pH 2, 60° C. 1 wk): 3.83% | Impurities ([2]; target pH 2, 60° C. 2 wk): 9.89% | Impurities ([2]; target pH 2, 60° C. 4 wk): 14.34% | Impurities ([2]; target pH 3, 40° C. 2 wk): 0.19% | Impurities ([2]; target pH 3, 40° C. 4 wk): 0.41% | Impurities ([2]; target pH 3, 60° C. 1 wk): 0.71% | Impurities ([2]; target pH 3, 60° C. 4 wk): 2.19% | Impurities ([2]; target pH 4, 40° C. 2 wk): 0.17% | Impurities ([2]; target pH 4, 40° C. 4 wk): 0.22% | Impurities ([2]; target pH 4, 60° C. 2 wk): 0.52% | Impurities ([2]; target pH 4, 60° C. 4 wk): 1.02% | Impurities ([2]; target pH 5, 60° C. 2 wk): 0.62% | Impurities ([2]; target pH 5, 60° C. 4 wk): 1.10% | Impurities ([2]; target pH 6, 40° C. 2 wk): 0.25% | Impurities ([2]; target pH 6, 40° C. 4 wk): 0.28% | Impurities ([2]; target pH 6, 60° C. 4 wk): 1.65% | Assay ([3]; target pH 2.0, 60° C. 4 wk): 0.786 | Impurities ([3]; target pH 2.7, 60° C. 4 wk): 3.9 | pH ([3]; target pH 3.0, 60° C. 4 wk): 3.00 | Assay ([3]; target pH 3.6, 60° C. 2 wk): 0.958 | drug substance stability (in words) ([4]; 4 weeks even at 60° C.): quite stable | Appearance ([4]; 40° C., T = 1 week): White | Purity ([4]; 40° C., T = 1 week): 99.92% | Related Substances (Total) ([4]; 40° C., T = 1 week): Total 0.08 | Appearance ([4]; 40° C., T = 2 week): White | Purity ([4]; 40° C., T = 2 week): 99.90% | Related Substances (Total) ([4]; 40° C., T = 2 week): Total 0.10 | Appearance ([4]; 40° C., T = 4 week): White | Purity ([4]; 40° C., T = 4 week): 100.00% | Appearance ([4]; 60° C., T = 1 week): powder | Purity ([4]; 60° C., T = 1 week): 99.76% | Related Substances (Total) ([4]; 60° C., T = 1 week): Total 0.24 | Appearance ([4]; 60° C., T = 2 week): powder | Purity ([4]; 60° C., T = 2 week): 100.00% | Appearance ([4]; 60° C., T = 4 week): powder | Purity ([4]; 60° C., T = 4 week): 100.00% | Appearance ([4]; T = 0): White | Purity ([4]; T = 0): 100.00%
